Experimental data taken from patent publication US11866430B2, “Naphthyridinone compounds useful as T cell activators” (priority 2018, dated 2024).
Like-named read-outs stand apart in the source and are kept apart here.

Tests used:
[1] = tested on: pre-activated CD4 T cells and Raji cells; assay: Raji CD4 T Cell IL2 Assay; format: cell-based
[2] = biological target: human DGKζ (Homo sapiens (Human), UniProt Q13574); assay: DGKζ assay (detergent/lipid micelle substrate); format: biochemical; conditions: detergent/lipid micelle substrate; read-out: DGKζ IC50
Chain of human DGKζ (Q13574 other isoform, or with tags, fused parts or gaps): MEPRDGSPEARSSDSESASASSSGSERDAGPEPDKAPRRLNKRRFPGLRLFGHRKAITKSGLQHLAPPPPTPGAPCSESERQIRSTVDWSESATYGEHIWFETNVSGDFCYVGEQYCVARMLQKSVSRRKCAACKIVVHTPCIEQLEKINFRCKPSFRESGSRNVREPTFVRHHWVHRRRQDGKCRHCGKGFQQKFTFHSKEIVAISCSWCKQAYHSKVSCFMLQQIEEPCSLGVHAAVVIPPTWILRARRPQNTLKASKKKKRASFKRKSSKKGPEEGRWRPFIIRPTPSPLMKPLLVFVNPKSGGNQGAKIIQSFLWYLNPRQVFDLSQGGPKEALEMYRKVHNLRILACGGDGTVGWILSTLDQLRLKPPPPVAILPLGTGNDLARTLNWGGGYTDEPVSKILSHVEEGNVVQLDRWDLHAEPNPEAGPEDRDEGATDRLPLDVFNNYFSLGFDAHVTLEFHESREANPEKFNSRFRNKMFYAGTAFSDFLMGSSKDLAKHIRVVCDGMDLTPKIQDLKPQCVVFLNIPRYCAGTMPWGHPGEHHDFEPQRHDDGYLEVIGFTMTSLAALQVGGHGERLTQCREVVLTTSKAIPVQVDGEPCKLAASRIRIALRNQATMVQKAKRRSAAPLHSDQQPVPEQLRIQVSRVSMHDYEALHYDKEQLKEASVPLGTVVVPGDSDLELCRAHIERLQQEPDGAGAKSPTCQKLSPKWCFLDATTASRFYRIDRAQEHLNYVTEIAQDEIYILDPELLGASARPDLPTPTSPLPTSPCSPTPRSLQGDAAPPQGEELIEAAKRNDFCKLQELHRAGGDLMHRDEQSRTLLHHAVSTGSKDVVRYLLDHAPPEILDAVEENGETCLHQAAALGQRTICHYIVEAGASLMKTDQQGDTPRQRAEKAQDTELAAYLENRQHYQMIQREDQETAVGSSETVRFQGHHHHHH
Experimental: (§1) The DGKα and DGKζ reactions were performed using either extruded liposome (DGKα and DGKζ LIPGLO assays) or detergent/lipid micelle substrate (DGKα and DGKζ assays). The reactions were carried out in 50 mM MOPS pH 7.5, 100 mM NaCl, 10 mM MgCl2, 1 μM CaCl2, and 1 mM DTT (assay buffer). The reactions using a detergent/lipid micelle substrate also contained 50 mM octyl B-D-glucopyranoside. […] The lipid substrate concentrations were […], 0.25 mM DAG, and 2.75 mM PC for the extruded liposome reactions.
(§2) The compound inhibition studies were carried out as follows: 50 nL droplets of each test compound (top concentration 10 mM with 11 point, 3-fold dilution series for each compound) solubilized in DMSO were transferred to wells of a white 1536 well plate (Corning 3725). A 5 mL enzyme/substrate solution at 2× final reaction concentration was prepared by combining 2.5 mL 4× enzyme solution (20 nM DGKα or DGKζ (prepared as described below) in assay buffer) and 2.5 mL of either 4× liposome or 4× detergent/lipid micelle solution (compositions described below) and incubated at room temperature for 10 minutes. Next, 1 μL 2× enzyme/substrate solution was added to wells containing the test compound and reactions were initiated with the addition of 1 μL 300 uM ATP. The reactions were allowed to proceed for 1 hr, after which 2 μL Glo Reagent (Promega V9101) was added and incubated for 40 minutes. Next, 4 μL Kinase Detection Reagent was added and incubated for 30 minutes. Luminescence was recorded using an EnVision microplate reader. […] The compounds were evaluated at 11 concentrations to determine IC50.
(§3) The detergent/lipid micelle was prepared by combining 15 g phosphatidylserine (Avanti 840035P) and 1 g diacylglycerol (800811O) and dissolving into 150 mL chloroform in a 2 L round bottom flask. Chloroform was removed under high vacuum by rotary evaporation. The resulting colorless, tacky oil was resuspended in 400 mL 50 mM MOPS pH 7.5, 100 mM NaCl, 20 mM NaF, 10 mM MgCl2, 1 μM CaCl2), 1 mM DTT, and 200 mM octyl glucoside by vigorous mixing. The lipid/detergent solution was split into 5 mL aliquots and stored at −80° C.
(§4) Human DGK-alpha-TVMV-His-pFBgate and human DCK-zeta-transcript variant-2-TVMV-His-pFBgate baculovirus samples were generated using the Bac-to-Bac baculovirus expression system (Invitrogen) according to the manufacturer's protocol. The DNA used for expression of DGK-alpha and DGK-zeta have SEQ ID NOs: 1 and 3, respectively. Baculovirus amplification was achieved using infected Sf9 cells at 1:1500 virus/cell ratios, and grown for 65 hours at 27° C. post-transfection.
(§5) The expression scale up for each protein was carried out in the Cellbag 50 L WAVE-Bioreactor System 20/50 from GE Healthcare Bioscience. 12 L of 2×10^6 cells/mL Sf9 cells (Expression System, Davis, Calif.) grown in ESF921 insect medium (Expression System) were infected with virus stock at 1:200 virus/cell ratios, and grown for 66-68 hours at 27° C. post-infection. The infected cell culture was harvested by centrifugation at 2000 rpm for 20 min 4° C. in a SORVALL® RC12BP centrifuge. The cell pellets were stored at −70° C. until purification.
(§6) Full length human DGKα and DGKζ, each expressed containing a TVMV-cleavable C-terminal Hexa-His tag sequence (SEQ ID NOs: 2 and 4, respectively) and produced as described above, were purified from Sf) baculovirus-infected insect cell paste. The cells were lysed using nitrogen cavitation method with a nitrogen bomb (Parr Instruments), and the lysates were clarified by centrifugation. […] The three steps column chromatography included nickel affinity resin capture (i.e. HisTrap FF crude, GE Healthcare), followed by size exclusion chromatography (i.e. HiLoad 26/600 Superdex 200 prep grade, GE Healthcare for DGK-alpha, and HiPrep 26/600 Sephacryl S 300_HR, GE Healthcare for DGK-zeta).

[3] = biological target: human DGKα (Homo sapiens (Human), UniProt P23743); assay: biochemical; conditions: detergent/lipid micelle substrate; read-out: DGKα IC50
Chain of human DGKα (P23743 other isoform, or with tags, fused parts or gaps): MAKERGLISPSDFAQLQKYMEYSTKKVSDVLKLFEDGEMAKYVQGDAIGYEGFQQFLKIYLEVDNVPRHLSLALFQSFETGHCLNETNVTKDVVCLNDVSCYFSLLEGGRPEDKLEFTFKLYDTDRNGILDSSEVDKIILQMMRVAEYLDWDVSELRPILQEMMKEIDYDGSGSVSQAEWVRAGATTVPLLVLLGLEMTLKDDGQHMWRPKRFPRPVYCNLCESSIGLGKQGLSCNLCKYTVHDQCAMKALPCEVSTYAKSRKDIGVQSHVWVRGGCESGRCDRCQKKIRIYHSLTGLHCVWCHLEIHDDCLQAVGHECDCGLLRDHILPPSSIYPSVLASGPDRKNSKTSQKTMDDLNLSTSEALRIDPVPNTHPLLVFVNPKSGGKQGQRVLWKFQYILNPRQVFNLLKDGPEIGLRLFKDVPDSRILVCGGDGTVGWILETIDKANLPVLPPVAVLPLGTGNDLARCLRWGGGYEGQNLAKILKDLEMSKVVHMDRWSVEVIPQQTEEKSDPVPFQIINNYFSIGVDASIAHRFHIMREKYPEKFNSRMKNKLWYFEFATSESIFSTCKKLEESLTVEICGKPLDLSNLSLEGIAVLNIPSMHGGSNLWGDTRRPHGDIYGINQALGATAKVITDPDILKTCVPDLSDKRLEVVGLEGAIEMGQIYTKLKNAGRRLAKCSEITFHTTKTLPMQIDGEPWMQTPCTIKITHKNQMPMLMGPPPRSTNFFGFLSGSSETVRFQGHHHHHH
Experimental: as §1, §2, §3, §4, §5, §6

Row | SMILES | IC50 [1] [nM] | IC50 [2] [nM] | IC50 [3] [nM] | IC50 ([1]; Homo sapiens, Raji) [nM]
1 | C=CCOc1cccc(C)c1C(c1ccc(F)cc1)N1CCN(c2c([N+](=O)[O-])c(=O)n(C)c3ccc(Br)nc23)CC1 (single isomer, unassigned) [Example 96, 4-(4-((2-(allyloxy)-6-methylphenyl)(4-fluorophenyl)methyl)piperazin-1-yl)-6-bromo-1-methyl-3-nitro-1,5-naphthyridin-2(1-H)-one] | 360 | 53000 | 87000 | –
2 | Cn1c(=O)c([N+](=O)[O-])c(N2CCN(C(c3ccc(F)cc3)c3ccccc3O)CC2)c2nc(C#N)ccc21 (single isomer, unassigned) [Example 98, 8-(4-((4-fluorophenyl)(2-hydroxyphenyl)methyl)piperazin-1-yl)-5-methyl-7-nitro-6-oxo-5,6-dihydro-1,5-naphthyridine-2-carbonitrile] | 130 | 4400 | 6700 | –
3 | C#CCOc1ccccc1C(c1ccc(F)cc1)N1CCN(c2c([N+](=O)[O-])c(=O)n(C)c3ccc(C#N)nc23)CC1 (single isomer, unassigned) [Example 101, 8-(4-((4-fluorophenyl)(2-(prop-2-yn-1-yloxy)phenyl)methyl)piperazin-1-yl)-5-methyl-7-nitro-6-oxo-5,6-dihydro-1,5-naphthyridine-2-carbonitrile] | – | 27000 | 15000 | 190
4 | C#CCn1c(=O)c(C#N)c(N2CCN(C(c3ccc(F)cc3)c3ccccc3O)CC2)c2nc(Br)ccc21 (single isomer, unassigned) [Example 106, 6-bromo-4-(4-((4-fluorophenyl)(2-hydroxyphenyl)methyl)piperazin-1-yl)-2-oxo-1-(prop-2-yn-1-yl)-1,2-dihydro-1,5-naphthyridine-3-carbonitrile] | – | 2000 | 960 | 2.4
5 | COCCn1c(=O)c(C#N)c(N2CCN(C(c3ccc(F)cc3)c3ccc(F)cc3OC)CC2)c2nc(Br)ccc21 (single isomer, unassigned) [Example 115, 6-bromo-4-(4-((4-fluoro-2-methoxyphenyl)(4-fluorophenyl)methyl)piperazin-1-yl)-1-(2-methoxyethyl)-2-oxo-1,2-dihydro-1,5-naphthyridine-3-carbonitrile] | 3800 | > 240000 | 220000 | –
6 | COCCn1c(=O)c(C#N)c(N2CCN(C(c3ccc(F)cc3)c3ccc(F)cc3OC)CC2)c2nc(Br)ccc21 (single isomer, unassigned) [Example 116, 6-bromo-4-(4-((4-fluoro-2-methoxyphenyl)(4-fluorophenyl)methyl)piperazin-1-yl)-1-(2-methoxyethyl)-2-oxo-1,2-dihydro-1,5-naphthyridine-3-carbonitrile] | 170 | > 240000 | > 240000 | –
7 | C#CCn1c(=O)c([N+](=O)[O-])c(N2CCN(C(c3ccc(F)cc3)C3CC3)CC2)c2nc(C#N)ccc21 (single isomer, unassigned) [Example 144, 8-(4-(cyclopropyl(4-fluorophenyl)methyl)piperazin-1-yl)-7-nitro-6-oxo-5-(prop-2-yn-1-yl)-5,6-dihydro-1,5-naphthyridine-2-carbonitrile] | – | 7900 | 530 | 20
8 | COCCn1c(=O)c([N+](=O)[O-])c(N2CCN(C(C)c3ccc(F)cc3)CC2)c2nc(C#N)ccc21 (single isomer, unassigned) [Example 149, 8-(4-(1-(4-fluorophenyl)ethyl)piperazin-1-yl)-5-(2-methoxyethyl)-7-nitro-6-oxo-5,6-dihydro-1,5-naphthyridine-2-carbonitrile] | 64 | 86000 | 47000 | –
9 | COCCn1c(=O)c([N+](=O)[O-])c(N2CCN(C(C)c3ccc(F)cc3)CC2)c2nc(C#N)ccc21 (single isomer, unassigned) [Example 150, 8-(4-(1-(4-fluorophenyl)ethyl)piperazin-1-yl)-5-(2-methoxyethyl)-7-nitro-6-oxo-5,6-dihydro-1,5-naphthyridine-2-carbonitrile] | 510 | 88000 | 73000 | –
10 | COc1ccccc1C(c1ccc(F)cc1)N1CCN(c2c(C#N)c(=O)n(CC3CC3)c3ccc(Br)nc23)CC1 (single isomer, unassigned) [Example 159, 6-bromo-1-(cyclopropylmethyl)-4-(4-((4-fluorophenyl)(2-methoxyphenyl)methyl)piperazin-1-yl)-2-oxo-1,2-dihydro-1,5-naphthyridine-3-carbonitrile] | – | > 240000 | 120000 | 2000
11 | COc1ccccc1C(c1ccc(F)cc1)N1CCN(c2c(C#N)c(=O)n(CC3CC3)c3ccc(Br)nc23)CC1 (single isomer, unassigned) [Example 160, 6-bromo-1-(cyclopropylmethyl)-4-(4-((4-fluorophenyl)(2-methoxyphenyl)methyl)piperazin-1-yl)-2-oxo-1,2-dihydro-1,5-naphthyridine-3-carbonitrile] | 2900 | 160000 | 180000 | –
12 | Cn1c(=O)c(C#N)c(N2CCN(Cc3ccccc3O)CC2)c2nc(Br)ccc21 [Example 2, 6-Bromo-4-(4-(2-hydroxybenzyl)piperazin-1-yl)-1-methyl-2-oxo-1,2-dihydro-1,5-naphthyridine-3-carbonitrile] | – | > 240000 | 49 | 200
13 | COc1ccc2c(c1)C(N1CCN(c3c(C#N)c(=O)n(C)c4ccc(Br)nc34)CC1)CC2 (stereo not drawn) [Example 21, 6-bromo-4-[4-(6-methoxy-2,3-dihydro-1H-inden-1-yl)piperazin-1-yl]-1-methyl-2-oxo-1,2-dihydro-1,5-naphthyridine-3-carbonitrile] | – | 94000 | 22000 | 410
14 | Cn1c(=O)c(C#N)c(N2CCN(C(CO)c3ccc(F)cc3)CC2)c2nc(Br)ccc21 (stereo not drawn) [Example 31, 6-bromo-4-{4-[1-(4-fluorophenyl)-2-hydroxyethyl]piperazin-1-yl}-1-methyl-2-oxo-1,2-dihydro-1,5-naphthyridine-3-carbonitrile] | – | > 240000 | 1200 | 1800
15 | C#CCOc1ccccc1C(c1ccc(F)cc1)N1CCN(c2c(C#N)c(=O)n(C)c3ccc(Cl)nc23)CC1 (stereo not drawn) [Example 39, 6-chloro-4-{4-[(4-fluorophenyl)[2-(prop-2-yn-1-yloxy)phenyl]methyl]piperazin-1-lv}-1-methyl-2-oxo-1,2-dihydro-1,5-naphthyridine-3-carbonitrile] | – | > 240000 | 50000 | 640
16 | Cn1c(=O)c([N+](=O)[O-])c(N2CCN(C(c3ccc(F)cc3)c3ccc(F)cc3)CC2)c2nc(C#N)ccc21 [Example 40, 8-(4-(bis(4-fluorophenyl)methyl)piperazin-1-yl)-5-methyl-7-nitro-6-oxo-5,6-dihydro-1,5-naphthyridine-2-carbonitrile] | – | 1300 | 1900 | 37
17 | COc1ccc2c(c1)C(N1CCN(c3c([N+](=O)[O-])c(=O)n(C)c4ccc(C#N)nc34)CC1)CC2 (stereo not drawn) [Example 46, 8-(4-(6-methoxy-2,3-dihydro-1H-inden-1-yl)piperazin-1-yl)-5-methyl-7-nitro-6-oxo-5,6-dihydro-1,5-naphthyridine-2-carbonitrile] | – | 2700 | 8500 | 130
